Consider one compound from patent US20250100977A1, “MERCAPTOPYRIMIDINE COMPOUNDS THAT INHIBIT NONHOMOLOGOUS END JOINING AND METHODS THEREOF” (INDIAN INSTITUTE OF SCIENCE, priority 2021, published 2025).

The subject of one series is Reh. Briefly: Cytotoxicity in Reh. Type of series: cell-based. The conditions noted are these: Table 2; 48 h; read-out: IC50 in cancer cell lines, Reh. Here is the method:
(§1) The compounds of the present invention were screened initially in leukemic and cervical cancer cell lines (Table 1). […] In cervical cancer cell line HeLa, IC50 was 5 and 2 μM, respectively for SCR116 and SCR132 (FIG. 5A-B).
(§2) Ligase IV specificity of the compounds of the present invention inside the cells were also determined using Ligase IV knock out (KO) cell line N114 compared to the wild type Nalm6 (Table 2, FIGS. 5C, D, E and F). […] Table 1 showing IC50 of SCR7 derivatives in cancer cell lines Nalm6 and HeLa. IC50 was calculated using GraphPad Prism software from the percentage of viable cells following treatment with the compounds at 48 h. Table 2 showing IC50 of SCR116 and SCR132 in a panel of 16 cancer cell lines.

In another series the test system is Molt3. Briefly: Cytotoxicity in Molt3. Type of series: cell-based. The conditions noted are these: Table 2; read-out: IC50 in cancer cell lines, Molt3. Here is the method: as §2
Series [1] is described as follows: Bioavailability in mice serum by HPLC. The note with it: intraperitoneal, 20 mg/kg body weight.
Experimental: The bioavailability of the compounds of the present disclosure were analysed in mice serum at different time points (0.5, 1, 2, 4, 6, 8, 10, 12, 24 and 48 h) by HPLC at 232 nm wavelength (FIGS. 10N-P).
In series [2] the test system is Ligase IV knock out (KO) cell line N114. Briefly: Cytotoxicity in Ligase IV knock out cell line N114. Type of series: cell-based. The note with it: Table 2, 48 h, read-out: IC50 in cancer cell lines, N114. Here is the method: as §2
The next series relates to Molt4. Briefly: Cytotoxicity in Molt4. Type of series: cell-based, human. The conditions noted are these: Table 2; read-out: IC50 in cancer cell lines, Molt4. Here is the method: as §2
The test system of another series is MCF7. Briefly: Cytotoxicity in MCF7. Type of series: cell-based. The conditions noted are these: Table 2; read-out: IC50 in cancer cell lines, MCF7. Here is the method:
as §2

The test system of the next series is CEM. Briefly: Cytotoxicity in CEM. Type of series: cell-based. The note with it: Table 2; read-out: IC50 in cancer cell lines, CEM. Here is the method: as §2
In series [3] the test system is cancer cell lines, particularly leukemia. The note with it: background statement; cited from earlier work.
Another series deals with T1, DNA Ligase IV/XRCC4 (Homo sapiens, UniProt P49917).
T1 construct: made in house; host or cells: bacteria
T1 sequence (P49917 whole entry): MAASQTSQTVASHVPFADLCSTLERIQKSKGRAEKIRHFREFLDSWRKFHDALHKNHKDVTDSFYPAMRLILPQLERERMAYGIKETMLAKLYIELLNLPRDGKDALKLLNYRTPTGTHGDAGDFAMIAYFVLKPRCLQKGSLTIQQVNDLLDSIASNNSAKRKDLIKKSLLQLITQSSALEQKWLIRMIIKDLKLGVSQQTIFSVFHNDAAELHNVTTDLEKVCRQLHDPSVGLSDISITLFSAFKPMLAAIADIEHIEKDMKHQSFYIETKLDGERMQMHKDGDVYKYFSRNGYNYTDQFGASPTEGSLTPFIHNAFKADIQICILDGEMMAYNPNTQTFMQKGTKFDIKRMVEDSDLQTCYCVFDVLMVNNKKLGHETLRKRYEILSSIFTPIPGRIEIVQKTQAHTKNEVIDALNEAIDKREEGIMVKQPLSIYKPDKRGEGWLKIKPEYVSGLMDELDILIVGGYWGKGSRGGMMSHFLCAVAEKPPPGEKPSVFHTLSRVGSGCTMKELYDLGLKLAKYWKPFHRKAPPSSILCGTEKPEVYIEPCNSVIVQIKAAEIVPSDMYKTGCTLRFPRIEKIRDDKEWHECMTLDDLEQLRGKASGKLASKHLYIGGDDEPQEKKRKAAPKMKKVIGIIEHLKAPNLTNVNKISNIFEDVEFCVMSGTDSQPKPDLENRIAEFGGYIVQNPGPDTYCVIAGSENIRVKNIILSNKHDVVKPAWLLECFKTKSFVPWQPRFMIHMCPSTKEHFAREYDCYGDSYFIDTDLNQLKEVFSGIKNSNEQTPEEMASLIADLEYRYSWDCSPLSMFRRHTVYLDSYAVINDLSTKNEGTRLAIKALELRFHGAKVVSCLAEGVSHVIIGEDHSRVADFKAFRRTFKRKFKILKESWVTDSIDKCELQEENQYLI
T1 sequence (Q13426 whole entry partner): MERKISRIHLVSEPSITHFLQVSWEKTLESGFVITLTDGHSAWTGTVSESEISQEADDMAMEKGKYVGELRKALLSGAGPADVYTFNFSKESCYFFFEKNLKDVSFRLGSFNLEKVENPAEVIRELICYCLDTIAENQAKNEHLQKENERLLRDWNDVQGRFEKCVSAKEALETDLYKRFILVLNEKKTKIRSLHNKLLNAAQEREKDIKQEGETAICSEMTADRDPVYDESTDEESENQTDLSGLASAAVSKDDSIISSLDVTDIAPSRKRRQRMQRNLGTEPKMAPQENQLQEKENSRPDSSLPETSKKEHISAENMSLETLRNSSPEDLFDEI
The note with it: 200 μM; background statement; cited from earlier work.

A further series deals with HCT116. Briefly: Cytotoxicity in HCT116. Type of series: cell-based. The conditions noted are these: Table 2; read-out: IC50 in cancer cell lines, HCT116. Here is the method:
as §2

Another series relates to Raji. Briefly: Cytotoxicity in Raji. Type of series: cell-based. The note with it: Table 2; read-out: IC50 in cancer cell lines, Raji. Here is the method: as §2
In the next series the test system is HeLa. Briefly: Cytotoxicity (viable cells) in HeLa. Type of series: cell-based. The conditions noted are these: Table 2; read-out: IC50 in cancer cell lines, HeLa. Here is the method: as §1, §2
Another series deals with Nalm6. Briefly: Cytotoxicity (viable cells) in Nalm6. The conditions noted are these: Table 2; read-out: IC50 in cancer cell lines, Nalm6. Type of series: cell-based. Here is the method: as §1, §2
Series [4] relates to Ligase IV knock out (KO) cell line N114. The note with it: Vartak et al. 2018, cited from earlier work.
The subject of another series is EAC. Briefly: Cytotoxicity in EAC. The conditions noted are these: Table 2; read-out: IC50 in cancer cell lines, EAC. Type of series: cell-based, mice. Here is the method: as §2
A further series has as its system SUDHL8. Briefly: Cytotoxicity in SUDHL8. Type of series: cell-based. The conditions noted are these: Table 2; read-out: IC50 in cancer cell lines, SUDHL8. Here is the method:
as §2

For another series, the system named is LN229. Briefly: Cytotoxicity in LN229. Type of series: cell-based. The note with it: Table 2; read-out: IC50 in cancer cell lines, LN229. Here is the method: as §2
The test system of another series is U118. Briefly: Cytotoxicity in U118. Type of series: cell-based. The conditions noted are these: Table 2; read-out: IC50 in cancer cell lines, U118. Here is the method: as §2
A further series has as its system L1210. Briefly: Cytotoxicity in L1210. Type of series: cell-based. The conditions noted are these: Table 2; read-out: IC50 in cancer cell lines, L1210. Here is the method: as §2
Another series has as its system Supt1. Briefly: Cytotoxicity in Supt1. Type of series: cell-based. The conditions noted are these: Table 2; read-out: IC50 in cancer cell lines, Supt1. Here is the method: as §2

Where two headings read alike, the source gives them in different places.

Take `O=c1[nH]c(=S)[nH]c(N=Cc2ccccc2)c1N=Cc1ccccc1` [SCR7, reference compound]: the IC50 (commonly the point on the concentration scale where inhibition reaches its midpoint) is above 250 µM in the series with Reh; 79.1 µM in the series with Molt3; above 250 µM in series [2]; 182 µM in the series with Molt4; 40 µM with MCF7; above 200 µM in the series on CEM. Further, the IC50 in series [3] was above 250 µM; in the series on HCT116 it was 302 µM; in the series on Raji it was above 250 µM; with HeLa it was 44 µM; in the series on Nalm6 it was 50 µM; in series [4], above 250 µM. In addition, the IC50 came out at 132 µM with EAC; 100 µM in the series with SUDHL8; 59.9 µM with LN229; 151 µM with U118; 370 µM with L1210; 109 µM with Supt1. Moreover, the t1/2 in [1] was determined as 1 h. Moreover, at DNA Ligase IV/XRCC4, the “Inhibition of DNA Ligase IV” value is 50%. The “Fold increased IC50 in N114” value in [4] (vs Nalm6) is on record as 5 fold.
